According to patent US7241785B2, “Five-membered heterocyclic alkanoic acid derivative” (Takeda Pharmaceutical Company Limited, priority 2001, dated 2007):

Key:
KKA^y mice [1] = assay: Hypoglycemic and hypolipidemic (hypotriglyceridemic) actions in mice; type: in vivo; conditions: Mus musculus, po, 96 h, 0.01% in powdery diet, four days
Protocol: Hypoglycemic and Hypolipidemic (Hypotriglyceridemic) Actions in Mice
Test compounds were mixed in a powdery diet (CE-2, Japan Clea) at the concentration of 0.01%, and freely given to KKA^y mice (11 to 12 weeks old, 5 mice per group), a model of type 2 diabetes mellitus, for four days. During this period, water was given freely. Blood was sampled from orbital venous plexus, and glucose and triglyceride levels in plasma separated from the blood were determined enzymatically using L type Wako Glu2 (Wako Pure Chemical Industries, Ltd.) or L type Wako TG.H (Wako Pure Chemical Industries, Ltd.), respectively.
In the Table, “hypoglycemic action (%)” represents a percent reduction (%) of the blood glucose level in the treatment group when the blood glucose level in the non-treatment group is taken as 100%. In addition, “hypolipidemic action (%)” represents a percent reduction (%) of the blood triglyceride level in the treatment group when the blood triglyceride level in the non-treatment group is taken as 100%.

PPARγ-RXRα heterodimer = biological target: T1, PPARγ-RXRα heterodimer (Homo sapiens, UniProt P37231); assay: PPARγ-RXRα heterodimer ligand activity (luciferase reporter, PPARγ:RXRα:4ERPP/CHO-K1 cells); type: cell-based; conditions: concentration for 50% of maximum fold induction of luciferase, 48 hrs
T1 construct: expressed in transfected cells
T1 sequence (P37231 1-477 isoform P37231-2): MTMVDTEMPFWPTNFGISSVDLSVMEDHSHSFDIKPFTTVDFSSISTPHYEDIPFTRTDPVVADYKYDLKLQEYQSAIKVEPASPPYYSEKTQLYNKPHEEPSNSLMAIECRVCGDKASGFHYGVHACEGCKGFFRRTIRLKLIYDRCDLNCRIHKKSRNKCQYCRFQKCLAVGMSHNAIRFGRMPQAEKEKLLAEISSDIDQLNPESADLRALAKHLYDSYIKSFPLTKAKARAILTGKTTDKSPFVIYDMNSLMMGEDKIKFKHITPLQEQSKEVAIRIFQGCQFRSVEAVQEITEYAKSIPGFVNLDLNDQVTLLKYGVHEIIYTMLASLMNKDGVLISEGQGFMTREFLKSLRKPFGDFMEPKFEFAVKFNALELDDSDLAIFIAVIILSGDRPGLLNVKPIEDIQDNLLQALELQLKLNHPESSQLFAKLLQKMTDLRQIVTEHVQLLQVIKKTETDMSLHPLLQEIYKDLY
T1 sequence (P19793 1-462 partner): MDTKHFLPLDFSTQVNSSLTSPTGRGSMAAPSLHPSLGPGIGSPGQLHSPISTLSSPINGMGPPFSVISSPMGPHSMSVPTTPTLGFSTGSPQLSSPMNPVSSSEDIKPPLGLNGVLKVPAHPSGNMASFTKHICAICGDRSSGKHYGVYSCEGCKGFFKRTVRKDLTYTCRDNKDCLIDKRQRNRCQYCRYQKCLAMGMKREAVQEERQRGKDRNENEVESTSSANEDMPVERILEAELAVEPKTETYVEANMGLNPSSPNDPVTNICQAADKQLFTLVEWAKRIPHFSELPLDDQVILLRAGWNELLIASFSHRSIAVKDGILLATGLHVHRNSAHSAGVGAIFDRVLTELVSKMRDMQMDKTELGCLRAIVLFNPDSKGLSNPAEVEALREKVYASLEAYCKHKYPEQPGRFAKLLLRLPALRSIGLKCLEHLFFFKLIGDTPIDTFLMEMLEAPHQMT
Protocol: (PPARγ-RXRα Heterodimer Ligand Activity)
PPARγ:RXRα:4ERPP/CHO-K1 cells obtained in Reference Example 8a were cultured in HAM F12 medium (manufactured by NISSUI SEIYAKU) containing 10% fetal bovine serum [manufactured by Life Technologies, Inc., USA], seeded in a 96-well white plate [manufactured by Corning Coster Corporation, USA] at the density of 2×10^4 cells/well and cultured in a CO2 gas incubator at 37° C. overnight.
After washing the 96-well white plate with PBS (Phosphate-buffered saline), 90 μl of HAM F12 medium containing 0.1% fatty acid-free bovine serum albumin (BSA) and 10 μl of test compound were added, and the cells were cultured in a CO2 gas incubator at 37° C. for 48 hrs. The medium was removed and 40 μl of PicaGene 7.5 (manufactured by Wako Pure Chemical Industries, Ltd.) was added. After stirring, the luciferase activity was determined using Lumistar [manufactured by BMG Labtechnologies GmbH, Germany].
The fold induction was calculated from the luciferase activity of each test compound when the luciferase activity of the non-treatment group is taken as 1. The values of the test compound concentration and the fold induction were analyzed using PRISM 2.01 (produced by GraphPad Software Inc. USA) to calculate the EC50 values, the effective concentration of a test compound for 50% of the maximum fold induction.
Introduction of Human PPARγ- and RXRα-Expression Plasmid and Reporter Plasmid into CHO-K1 Cell and Establishment of Expressed Cell
After a CHO-K1 cell cultured in a tissue culture flask (750 ml) (produced by Corning Costar Corporation, USA) containing HAM F12 medium (produced by NISSUI SEIYAKU) supplemented with 10% fetal bovine serum (produced by Life Technologies, Inc., USA) was scraped by treating with 0.5 g/L trypsin-0.2 g/L EDTA (ethylenediaminetetraacetic acid) (produced by Life Technologies, Inc., USA), the cell was washed with PBS (phosphate-buffered saline) (produced by Life Technologies, Inc., USA), centrifuged (1000 rpm, 5 minutes), and then suspended in PBS. Subsequently, a DNA was introduced into the cell under the conditions shown below using GENE PULSER (produced by Bio-Rad Laboratories, USA).
Namely, to a cuvette having a 0.4 cm gap, added were 8×10^6 cells and 10 μg of plasmid pVgRXR2-hPPARγ obtained in Reference Example 7a and 10 μg of reporter plasmid pGL3-4ERPP-TK neo obtained in Reference Example 4a, which was subjected to electroporation at the voltage of 0.25 kV under the capacitance of 960 μF. Subsequently, the cell was transferred into a HAM F12 medium containing 10% fetal bovine serum and cultured for 24 hours and then the cell was scraped again and centrifuged, and then suspended in HAM F12 medium containing 10% fetal bovine serum supplemented with 500 μg/ml of GENETICIN, (produced by Life Technologies, Inc., USA) and 250 μg /ml of ZEOCIN (produced by Invitrogen, USA). The obtained suspension was diluted to the density of 10^4 cells/ml and inoculated to a 96-well plate (produced by Corning Costar Corporation, USA), which was cultured in a CO2 gas incubator at 37° C., whereby obtaining a GENETICIN- and ZEOCIN-resistant transformant.
Subsequently, after the transformant cell line thus obtained was cultured in a 24-well plate (produced by Corning Costar Corporation, USA), selected was a cell line in which the luciferase was expressed and induced, i.e., PPARγ:RXRα:4ERPP/CHO-K1 cell by the addition of 10 μM pioglitazone hydrochloride.

KKA^y mice [2] = assay: Total cholesterol lowering action and plasma anti-arteriosclerosis index-enhancing action in mice; type: in vivo; conditions: Mus musculus, po, 96 h, 0.01% in powdery diet, four days; for change in vivo at 0.01 % in diet: percent increase of index [(HDL cholesterol/total cholesterol)×100] vs non-treatment group (100%); for inhibition in vivo at 0.01 % in diet: percent reduction of total cholesterol level vs non-treatment group (100%)
Protocol: Total Cholesterol Lowering Action and Plasma Anti-Arteriosclerosis Index-Enhancing Action in Mice
Test compounds were mixed in a powdery diet (CE-2, Japan Clea concentration of 0.01%, and freely given to KKA^y mice (11 to 12 weeks old, 5 mice per group), a model of type 2 diabetes mellitus, for four days. During this period, water was given freely. Blood was sampled from orbital venous plexus, and components in plasma separated from the blood were determined. Total cholesterol levels were determined using L type Wako Cholesterol (Wako Pure Chemical Industries, Ltd.). Precipitation reagent for HDL cholesterol was added to a part of the plasma to precipitate non-HDL lipoprotein, and cholesterol (HDL cholesterol) in the resulting supernatant was determined. The plasma anti-arteriosclerosis index [(HDL cholesterol/total cholesterol)×100] was calculated using these cholesterol levels.
In the Table, “total cholesterol lowering action (%)” represents a percent reduction (%) of the total cholesterol level in the treatment group when the total cholesterol level in the non-treatment group is taken as 100%. In addition, “plasma anti-arteriosclerosis index-enhancing action (%)” represents a percent increase (%) of the plasma anti-arteriosclerosis index in the treatment group when the plasma anti-arteriosclerosis index in the non-treatment group is taken as 100%.

[3] = percent reduction of blood glucose level vs non-treatment group (100%), read-out: Hypoglycemic action (%)
[4] = percent reduction of blood triglyceride level vs non-treatment group (100%), read-out: Hypolipidemic action (%)

SMILES | EC50 (PPARγ-RXRα heterodimer) [nM] | melting point [°C] | inhibition in vivo at 0.01 % in diet (KKA^y mice [1]; [3]) [%] | inhibition in vivo at 0.01 % in diet (KKA^y mice [1]; [4]) [%] | change in vivo at 0.01 % in diet (KKA^y mice [2]) [%] | inhibition in vivo at 0.01 % in diet (KKA^y mice [2]) [%]
Cc1oc(-c2ccccc2)nc1COc1ccc(Cc2nc(-c3ccccc3)c(CCC(=O)O)o2)cc1 [Example 2, 3-[2-[4-(5-methyl-2-phenyl-4-oxazolylmethoxy)benzyl]-4-phenyl-5-oxazolyl]propionic acid] | 3.7 | 142 to 143 | 45 | 52 | – | –
Cc1oc(-c2ccccc2)nc1COc1ccc(Cc2nc(-c3ccccc3)c(CCC(=O)O)[nH]2)cc1 [Example 4, 3-[2-[4-(5-methyl-2-phenyl-4-oxazolylmethoxy)benzyl]-4-phenyl-1H-imidazol-5-yl]propionic acid] | 16 | 193 to 196 | – | – | – | –
Cc1oc(-c2ccccc2)nc1COc1ccc(Cc2nc(CCC(=O)O)c(-c3ccccc3)o2)cc1 [Example 6, 3-[2-[4-(5-methyl-2-phenyl-4-oxazolylmethoxy)benzyl]-5-phenyl-4-oxazolyl]propionic acid] | 3.6 | 136 to 137 | 46 | 62 | 17 | 27
Cc1oc(-c2ccccc2)nc1COc1ccc(Cc2nc(CCC(=O)O)c(-c3ccccc3)s2)cc1 [Example 8, 3-[2-[4-(5-methyl-2-phenyl-4-oxazolylmethoxy)benzyl]-5-phenyl-4-thiazolyl]propionic acid] | 16 | 119 to 120 | 43 | 56 | 11 | 17
Cc1oc(-c2ccccc2)nc1COc1ccc(COc2nn(C)cc2CC(=O)O)cn1 [Example 26, [1-methyl-3-[6-(5-methyl-2-phenyl-4-oxazolylmethoxy)-3-pyridylmethoxy]-1H-pyrazol-4-yl]acetic acid] | 37 | 139 to 140 | 56 | 53 | 14 | 14
Cc1oc(-c2ccccc2)nc1COc1ccc(COc2nn(Cc3ccccc3)cc2CC(=O)O)cn1 [Example 40, [1-benzyl-3-[6-(5-methyl-2-phenyl-4-oxazolylmethoxy)-3-pyridylmethoxy]-1H-pyrazol-4-yl]acetic acid] | – | 87 to 88 | 52 | 76 | 22 | 13

More lines, main results first:

EC50 (PPARγ-RXRα heterodimer) [nM] | melting point [°C] | SMILES | inhibition in vivo at 0.01 % in diet (KKA^y mice [1]; [3]) [%] | inhibition in vivo at 0.01 % in diet (KKA^y mice [1]; [4]) [%] | change in vivo at 0.01 % in diet (KKA^y mice [2]) [%] | inhibition in vivo at 0.01 % in diet (KKA^y mice [2]) [%]
3.9 | 151 to 152 | Cc1oc(-c2ccccc2)nc1COc1ccc(COc2nn(-c3ccccc3)cc2CC(=O)O)cc1 [Example 50, [3-[4-(5-methyl-2-phenyl-4-oxazolylmethoxy)benzyloxy]-1-phenyl-1H-pyrazol-4-yl]acetic acid] | 46 | 81 | 12 | 8
0.38 | 147 to 148 | COc1cc(COc2nn(-c3ccccc3)cc2CC(=O)O)ccc1OCc1nc(-c2ccccc2)oc1C [Example 52, [3-[3-methoxy-4-(5-methyl-2-phenyl-4-oxazolylmethoxy)benzyloxy]-1-phenyl-1H-pyrazol-4-yl]acetic acid] | 50 | 82 | 16 | 22
0.64 | 164 to 165 | Cc1oc(-c2ccccc2)nc1COc1ccc(COc2nn(-c3ccccc3)cc2CC(=O)O)cn1 [Example 54, [3-[6-(5-methyl-2-phenyl-4-oxazolylmethoxy)-3-pyridylmethoxy]-1-phenyl-1H-pyrazol-4-yl]acetic acid] | 52 | 89 | 14 | 18
6.9 | 180 to 181 | Cc1oc(-c2ccccc2)nc1COc1ccc(CCc2oc(-c3ccccc3)nc2CC(=O)O)cc1 [Example 64, [5-[2-[4-(5-methyl-2-phenyl-4-oxazolyl)methoxyphenyl]ethyl]-2-phenyl-4-oxazolyl]acetic acid] | – | – | – | –
